Measured values from ChEMBL document CHEMBL2202973, “Specific interactions between adenosine and streptavidin/avidin” (Bioorg Med Chem Lett, 2012).
Active and inactive are the calls of the source. The calls are words filed in the database; no cut-off is given here.

Columns and labels:
Avidin (Gallus gallus) [1] = target: Avidin (Gallus gallus) (UniProt P02701); assay: Binding affinity to chick avidin assessed as quenching rate constant by fluorescence quenching spectral method
[2] = target: Streptavidin (Streptomyces avidinii) (UniProt P22629); assay: Binding affinity to Streptomyces avidinii assessed as quenching rate constant by fluorescence quenching spectral method
Avidin (Gallus gallus) [3] = target: Avidin (Gallus gallus) (UniProt P02701); assay: Binding affinity to chick avidin assessed as changes in protein fluorescence intensity in presence of biotin by fluorescence spectral analysis method
Avidin = Avidin (Gallus gallus, UniProt P02701); assay: Binding affinity to chick avidin using fluorescence spectral analysis method based double reciprocal plot analysis; conditions: read-out: Kd(app)
Streptavidin = Streptavidin (Streptomyces avidinii, UniProt P22629); assay: Binding affinity to Streptomyces avidinii streptavidin using fluorescence spectral analysis method based double reciprocal plot analysis; conditions: read-out: Kd(app)
[4] = target: Streptavidin (Streptomyces avidinii) (UniProt P22629); assay: Binding affinity to Streptomyces avidinii assessed as changes in protein fluorescence intensity in presence of biotin by fluorescence spectral analysis method
Avidin (Gallus gallus) [5] = target: Avidin (Gallus gallus) (UniProt P02701); assay: Binding affinity to chick avidin assessed as changes in protein fluorescence intensity by fluorescence spectral analysis method
Albumin = Albumin (Bos taurus, UniProt P02769); assay: Binding affinity to BSA assessed as changes in tryptophan fluorescence intensity by fluorescence spectral analysis method; conditions: cattle
[6] = target: Streptavidin (Streptomyces avidinii) (UniProt P22629); assay: Binding affinity to Streptomyces avidinii assessed as changes in protein fluorescence intensity by fluorescence spectral analysis method

Sequence of Avidin (Gallus gallus) (P02701 whole entry): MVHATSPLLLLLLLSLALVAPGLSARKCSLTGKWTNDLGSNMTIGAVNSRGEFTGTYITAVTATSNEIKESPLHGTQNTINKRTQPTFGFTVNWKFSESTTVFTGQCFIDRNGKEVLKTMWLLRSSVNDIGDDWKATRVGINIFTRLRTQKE
Sequence of Streptavidin (Streptomyces avidinii) (P22629 whole entry): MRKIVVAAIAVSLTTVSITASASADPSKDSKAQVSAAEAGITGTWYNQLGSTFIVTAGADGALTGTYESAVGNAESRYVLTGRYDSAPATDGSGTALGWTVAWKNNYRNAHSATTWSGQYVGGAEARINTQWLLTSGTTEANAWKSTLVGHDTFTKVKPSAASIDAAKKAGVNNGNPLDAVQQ
Sequence of Avidin (P02701 whole entry): as the sequence (P02701 whole entry) above
Sequence of Albumin (P02769 whole entry): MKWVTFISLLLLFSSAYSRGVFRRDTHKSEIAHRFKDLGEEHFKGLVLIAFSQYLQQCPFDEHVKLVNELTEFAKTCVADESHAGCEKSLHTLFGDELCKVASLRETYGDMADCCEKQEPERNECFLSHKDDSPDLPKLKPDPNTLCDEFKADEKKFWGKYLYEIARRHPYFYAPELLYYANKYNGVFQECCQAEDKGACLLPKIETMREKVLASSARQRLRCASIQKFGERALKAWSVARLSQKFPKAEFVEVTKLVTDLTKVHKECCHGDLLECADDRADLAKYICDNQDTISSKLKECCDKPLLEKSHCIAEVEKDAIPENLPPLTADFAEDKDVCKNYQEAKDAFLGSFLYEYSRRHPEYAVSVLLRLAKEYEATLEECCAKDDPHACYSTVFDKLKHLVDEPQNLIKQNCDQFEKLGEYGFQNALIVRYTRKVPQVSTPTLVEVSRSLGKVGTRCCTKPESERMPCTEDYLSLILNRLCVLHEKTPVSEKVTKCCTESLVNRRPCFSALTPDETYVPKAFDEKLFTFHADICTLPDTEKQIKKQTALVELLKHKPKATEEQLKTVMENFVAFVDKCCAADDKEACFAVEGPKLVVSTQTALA
Sequence of Streptavidin (P22629 whole entry): as the sequence (P22629 whole entry) above

| Structure (SMILES) | Kq (Avidin (Gallus gallus) [1]) [×10¹¹ L/mol/s] | Kq [2] [×10¹⁰ L/mol/s] | Activity (Avidin (Gallus gallus) [3]) | Kd (Avidin) [µM] | Kd (Streptavidin) [µM] | Activity [4] | Activity (Avidin (Gallus gallus) [5]) | Activity (Albumin) | Activity [6] |
| --- | --- | --- | --- | --- | --- | --- | --- | --- | --- |
| Nc1ncnc2c1ncn2[C@@H]1O[C@H](CO)[C@@H](O)[C@H]1O [ADENOSINE] | 1.28 | 8.5 | inactive | 117 | 168 | inactive | Active | Not Active | Active |
| Nc1ncnc2c1ncn2[C@@H]1O[C@H](COP(=O)(O)OP(=O)(O)OP(=O)(O)O)[C@@H](O)[C@H]1O |  |  |  |  |  |  |  |  | inactive |
| O=C(O)CCCC[C@@H]1SC[C@@H]2NC(=O)N[C@@H]21 |  |  |  |  |  |  |  |  | Active |
